The test system of series [1] is Staphylococcus aureus (ATCC 6538). Description: Potentiation Assay (non-evaporative vs evaporative procedure). Format: cell-based. To be noted: for Evaporated Log 10 Reduction: evaporated in centrifuge 60 minutes; for Non-evaporated Log 10 Reduction: set 60 minutes; for evaporative potentiation of antimicrobial efficacy: evaporative vs non-evaporative procedure, concentrations tested in water. On the procedure: Now referring primarily to Table 5 and FIG. […] The non-evaporative and evaporative procedures included 50 μL of an overnight Staphylococcus aureus (ATCC 6538, ˜10^9 CFU/mL) culture added to each 2 mL sterile plastic vial with a conical bottom and dried without capping in a centrifuge for 30 minutes. One hundred microliters of the solution being tested was added to each vial (as triplicate vials) either let set for 60 minutes (non-evaporative) or evaporated in a centrifuge for 60 minutes (evaporative), with time to evaporate being determined by each DAA mixtures own evaporative characteristic. To the non-evaporated vials, 400 μL Mueller Hinton Broth (MHB) was added to the vial and 100 μL was plated onto Nutrient agar (NA). To the evaporated vials, 500 μL of MHB was added and 100 μL was plated onto NA. Plates were incubated overnight at ˜37° C. and counted (the “Potentiation Assay”).

Series [2] in a line: Relative evaporation rates. The note with it: BuAc (reference) = 1.00. Format: physicochemical. An excerpt: Line C represents the change in fluid volume of a 20% (v/v) solution of diacetone alcohol in water caused by evaporation (a particular embodiment of the inventive differential evaporation antimicrobial composition), while line D represents the change in fluid phase concentration of the same 20% (v/v) diacetone alcohol in water occurring during the same fluid volume change. In this case, complete evaporation can occur in approximately 75 time units. Comparatively, the 20% (v/v) diacetone alcohol in water can be engaged with a population of microorganisms for a greater duration of time than the conventional antimicrobial composition without reapplication of an additional amount because evaporation occurs at a slower rate as shown by Table 3.

The conditions of series [3]: neat substance; BuAc (reference) = 1.00; cited from earlier work.
For series [4] the following is noted: Table 1; cited from earlier work.
The conditions of series [5]: flash point; cited from earlier work.
[6] abbreviates: 5% v/v active component, 95% water.
The mark [7] stands for this setting: 10% v/v active component, 90% water.
Setting [8] is: 15% v/v active component, 85% water.

As for `CN(C)CCO` [DMEA, 2-dimethylaminoethanol], the “Evaporated Log 10 Reduction” value in series [1] (setting [6]) is reported as “XX (denotes a plate where the number of colonies represented less than 10% of the number of colonies counted in the corresponding positive control plate, representing a significant reduction of the number of microorganisms (>3 Log10 reduction).)”; in series [1] (setting [7]), “XXx (denotes a plate where the number of colonies represented less than 1% of the number of colonies counted in the corresponding positive control plate, representing nearly complete reduction of the number of microorganisms (>4 Log10 reduction).)”; in series [1] (setting [8]), “XXx (denotes a plate where the number of colonies represented less than 1% of the number of colonies counted in the corresponding positive control plate, representing nearly complete reduction of the number of microorganisms (>4 Log10 reduction).)”. Besides, the “Non-evaporated Log 10 Reduction” value in series [1] (setting [6]) is given as “---0--- (denotes a plate where the numbers of colonies represented more than 50% of the number of colonies counted in the corresponding positive control plate, representing no significant reduction in the population of viable microorganisms (0 to 1 Log10 reduction).)”; in series [1] (setting [7]), “---0--- (denotes a plate where the numbers of colonies represented more than 50% of the number of colonies counted in the corresponding positive control plate, representing no significant reduction in the population of viable microorganisms (0 to 1 Log10 reduction).)”; in series [1] (setting [8]), “---0--- (denotes a plate where the numbers of colonies represented more than 50% of the number of colonies counted in the corresponding positive control plate, representing no significant reduction in the population of viable microorganisms (0 to 1 Log10 reduction).)”.

`CC(=O)OCCOC(C)=O` [EGDA, ethylene glycol diethyl ester]: the “Evaporated Log 10 Reduction” value was “---0--- (denotes a plate where the numbers of colonies represented more than 50% of the number of colonies counted in the corresponding positive control plate, representing no significant reduction in the population of viable microorganisms (0 to 1 Log10 reduction).)” in series [1] (setting [6]); “XX (denotes a plate where the number of colonies represented less than 10% of the number of colonies counted in the corresponding positive control plate, representing a significant reduction of the number of microorganisms (>3 Log10 reduction).)” in series [1] (setting [7]); “XX (denotes a plate where the number of colonies represented less than 10% of the number of colonies counted in the corresponding positive control plate, representing a significant reduction of the number of microorganisms (>3 Log10 reduction).)” in series [1] (setting [8]). Besides, the “Non-evaporated Log 10 Reduction” value in series [1] (setting [6]) is “---0--- (denotes a plate where the numbers of colonies represented more than 50% of the number of colonies counted in the corresponding positive control plate, representing no significant reduction in the population of viable microorganisms (0 to 1 Log10 reduction).)”; in series [1] (setting [7]), “---0--- (denotes a plate where the numbers of colonies represented more than 50% of the number of colonies counted in the corresponding positive control plate, representing no significant reduction in the population of viable microorganisms (0 to 1 Log10 reduction).)”; in series [1] (setting [8]) it was “---0--- (denotes a plate where the numbers of colonies represented more than 50% of the number of colonies counted in the corresponding positive control plate, representing no significant reduction in the population of viable microorganisms (0 to 1 Log10 reduction).)”. For the same compound, the “evaporative potentiation of antimicrobial efficacy” value (“evaporative potentiation” below) in series [1] is “can be potentiated by evaporation”.

Regarding `CCCCOCCO` [EGMBE, ethylene glycol monobutyl ether], the “Relative Evaporation Rates (estimated)” value in series [2] (10% (v/v)) is given as 0.33; in series [2] (20% (v/v)), 0.30. Also, the “evaporative potentiation” value in series [1] is “can be potentiated by evaporation”. In series [3], the “Relative Evaporation Rates” value is 0.06.

`COCCOC(C)=O` [EGMEA, ethylene glycol monomethyl ether acetate]: the “Evaporated Log 10 Reduction” value was “---0--- (denotes a plate where the numbers of colonies represented more than 50% of the number of colonies counted in the corresponding positive control plate, representing no significant reduction in the population of viable microorganisms (0 to 1 Log10 reduction).)” in series [1] (setting [6]); “---0--- (denotes a plate where the numbers of colonies represented more than 50% of the number of colonies counted in the corresponding positive control plate, representing no significant reduction in the population of viable microorganisms (0 to 1 Log10 reduction).)” in series [1] (setting [7]); “XX (denotes a plate where the number of colonies represented less than 10% of the number of colonies counted in the corresponding positive control plate, representing a significant reduction of the number of microorganisms (>3 Log10 reduction).)” in series [1] (setting [8]). For the same compound, the “Non-evaporated Log 10 Reduction” value in series [1] (setting [6]) was “---0--- (denotes a plate where the numbers of colonies represented more than 50% of the number of colonies counted in the corresponding positive control plate, representing no significant reduction in the population of viable microorganisms (0 to 1 Log10 reduction).)”; in series [1] (setting [7]), “---0--- (denotes a plate where the numbers of colonies represented more than 50% of the number of colonies counted in the corresponding positive control plate, representing no significant reduction in the population of viable microorganisms (0 to 1 Log10 reduction).)”; in series [1] (setting [8]), “---0--- (denotes a plate where the numbers of colonies represented more than 50% of the number of colonies counted in the corresponding positive control plate, representing no significant reduction in the population of viable microorganisms (0 to 1 Log10 reduction).)”. The “evaporative potentiation” value in series [1] was “can be potentiated by evaporation”.

With `CCO` [Ethanol, reference compound], in series [4], the “Azeotrope with Water % v/v” value was 94% v/v and the “Azeotrope with Water % w/w” value is reported as 95% w/w. Further, the FP in series [5] is 22 °C.

`CCC(C)=NO` [MEKO, 2-butanone oxime]: in series [1] (setting [7]), the “Evaporated Log 10 Reduction” value is “XXX (denotes a plate in which zero colonies were present, representing complete reduction of the number of microorganisms (>5 Log10 reduction).)” and the “Non-evaporated Log 10 Reduction” value is “XXX (denotes a plate in which zero colonies were present, representing complete reduction of the number of microorganisms (>5 Log10 reduction).)”. For the same compound, in series [1] (setting [8]), the “Evaporated Log 10 Reduction” value is listed as “XXX (denotes a plate in which zero colonies were present, representing complete reduction of the number of microorganisms (>5 Log10 reduction).)” and the “Non-evaporated Log 10 Reduction” value is reported as “XXX (denotes a plate in which zero colonies were present, representing complete reduction of the number of microorganisms (>5 Log10 reduction).)”. In addition, the “evaporative potentiation” value in series [1] is “can be potentiated by evaporation”.

In the case of `CO` [Methanol], in series [5], the FP was 11 °C.

Turning to `O` [water], the “Relative Evaporation Rates” value in series [3] was 0.36.

The values above are taken from US9474814B2, “Differential evaporation potentiated disinfectant system” (XY, LLC, priority 2007, dated 2016).
